Results: patent publication US12466804B2 (BRISTOL-MYERS SQUIBB COMPANY, priority 2019, dated 2025)

Columns and labels:
IPF patients = conditions: 26-week clinical trial in IPF patients (Palmer et al.); cited from earlier work
human LPA1 = target: T1, human LPA1 (Homo sapiens, UniProt Q92633); assay: LPA1 functional antagonist assay (LPA-induced calcium flux); format: cell-based; conditions: CHO cells overexpressing human LPA1; calcium flux induced by 10 nM LPA; read-out: hLPA1 IC50
T1 construct: expressed in transfected cells; host or cells: Chinese hamster ovary (CHO) cells
T1 sequence (Q92633 whole entry): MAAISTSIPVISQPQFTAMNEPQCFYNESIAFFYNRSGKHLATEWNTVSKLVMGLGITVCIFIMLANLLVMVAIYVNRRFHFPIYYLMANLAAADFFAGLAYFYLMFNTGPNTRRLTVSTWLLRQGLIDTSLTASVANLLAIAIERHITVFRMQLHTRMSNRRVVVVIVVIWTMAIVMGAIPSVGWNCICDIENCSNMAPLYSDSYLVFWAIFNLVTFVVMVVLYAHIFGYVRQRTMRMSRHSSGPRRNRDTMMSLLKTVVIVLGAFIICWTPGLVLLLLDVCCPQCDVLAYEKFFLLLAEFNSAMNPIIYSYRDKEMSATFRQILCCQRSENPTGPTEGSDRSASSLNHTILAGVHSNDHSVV
Procedure: The effectiveness of compounds of the present invention as LPA1 inhibitors can be determined in an LPA1 functional antagonist assay as follows:
The cells were then equilibrated to room temperature for 30 minutes before the assay. […] IC50 values were determined by fitting data to a 4-parameter logistic equation (GraphPad Prism, San Diego CA).

nerve-injured mice = conditions: pretreatment, nerve-injured mice (Inoue et al.); cited from earlier work
[1] = system: human foetal lung fibroblasts; conditions: Tager et al.; cited from earlier work
UUO mice = conditions: cited from earlier work
[2] = system: mouse epithelial renal cell line, MCT; conditions: MCT cells, co-treatment with LPA; cited from earlier work
[3] = system: pancreatic cancer cell lines; conditions: cited from earlier work

Cc1noc(-c2ccc(-c3ccc(C4(C(=O)O)CC4)cc3)cc2)c1NC(=O)O[C@H](C)c1ccccc1 [BMS-986020]
rate of FVC (forced vital capacity) decline (IPF patients): significantly reduce

Cc1nc(-c2onc(C)c2COC(=O)N(C)C2CCCC2)ccc1OCC12CCC(C(=O)O)(C1)C2 [Example 58, 4-(((6-(4-(((cyclopentyl(methyl)carbamoyl)oxy)methyl)-3-methylisoxazol-5-yl)-2-methylpyridin-3-yl)oxy)methyl)bicyclo[2.1.1]hexane-1-carboxylic acid]
IC50 (human LPA1): 22 nM

C[C@@H](N)[C@H]1CC[C@H](C(=O)Nc2ccncc2)CC1 [Example Y-27632]
allodynia and hyperalgesia (nerve-injured mice): completely abolished

Cc1noc(-c2ccc(CSCCC(=O)O)cc2)c1NC(=O)OC(C)c1ccccc1Cl (centres unmarked) [Ki16425]
chemotaxis of human foetal lung fibroblasts induced by BAL from IPF patients [1]: blocked | development of renal fibrosis (UUO mice): closely resembled the profile of LPA1 (−/−) mice | LPA-induced expression of the profibrotic cytokine CTGF [2]: almost completely suppressed | LPA-induced and ascites-induced invasion activity ([3]; highly peritoneal metastatic pancreatic cancer cell line): blocked | in vitro migration in response to LPA and peritoneal fluid (ascites) from pancreatic cancer patients ([3]; pancreatic cancer cell lines (Yamada et al.)): effectively blocked
